According to ChEMBL document CHEMBL3351918 (Bioorg Med Chem, 2014):
Active and inactive are the calls of the source. The rule behind the calls is not given here.

Assays:
[1] = target: Butyrylcholinesterase (Rattus norvegicus, UniProt Q9JKC1); assay: Inhibition of BChE in rat serum using butyrylthiocholine iodide substrate incubated for 15 mins by UV spectroscopy based Ellman's method; format: cell-free
[2] = target: T1, Acetylcholinesterase (Rattus norvegicus, UniProt P37136); assay: Inhibition of AChE in rat cortex homogenates using acetylthiocholine iodide substrate incubated for 15 mins by UV spectroscopy based Ellman's method
T1 sequence (P37136 whole entry): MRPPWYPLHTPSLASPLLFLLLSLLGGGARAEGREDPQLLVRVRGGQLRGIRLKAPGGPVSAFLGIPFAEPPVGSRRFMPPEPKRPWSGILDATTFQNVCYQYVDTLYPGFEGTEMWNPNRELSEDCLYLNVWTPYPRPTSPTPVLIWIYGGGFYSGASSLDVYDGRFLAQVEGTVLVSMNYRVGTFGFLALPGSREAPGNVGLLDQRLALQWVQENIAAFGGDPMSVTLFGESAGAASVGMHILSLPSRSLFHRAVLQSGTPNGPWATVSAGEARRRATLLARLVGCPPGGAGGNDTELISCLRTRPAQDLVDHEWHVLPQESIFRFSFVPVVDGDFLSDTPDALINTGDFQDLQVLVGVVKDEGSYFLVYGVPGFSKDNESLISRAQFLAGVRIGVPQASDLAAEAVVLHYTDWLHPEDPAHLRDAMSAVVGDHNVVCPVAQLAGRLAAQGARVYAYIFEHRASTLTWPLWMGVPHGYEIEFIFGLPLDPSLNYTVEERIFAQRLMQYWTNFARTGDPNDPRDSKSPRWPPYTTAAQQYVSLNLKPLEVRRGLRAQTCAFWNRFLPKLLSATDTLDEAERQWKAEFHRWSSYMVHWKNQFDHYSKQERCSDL

[3] = target: Amyloid-beta precursor protein (Homo sapiens) (UniProt P05067); assay: Inhibition of Amyloid beta (1 to 40) (unknown origin) assessed as self-mediated fibril formation at 50 uM incubated for 48 hrs by transmission electron microscopy
[4] = target: T1, Acetylcholinesterase; assay: Retention time in rat cortex homogenates at 1 mmol after 24 hrs by HPLC-MS method; format: ADME; conditions: tissue homogenate
[5] = target: T1, Acetylcholinesterase; assay: Prodrug activation in rat cortex homogenates assessed as AChE-mediated 2-methoxy-4-(piperidin-1-ylmethyl)phenol formation at 1 mmol after 24 hrs by HPLC-MS method; conditions: tissue homogenate
[6] = target: Butyrylcholinesterase (Rattus norvegicus) (UniProt Q9JKC1); assay: Potency index, ratio of IC50 for rivastigmine to IC50 for test compound against BChE in rat serum using butyrylthiocholine iodide substrate incubated for 15 mins by UV spectroscopy based Ellman's method; format: cell-free
[7] = Antioxidant activity assessed as ABTS radical cation scavenging activity; format: physicochemical
[8] = target: T1, Acetylcholinesterase; assay: Prodrug activation in rat cortex homogenates treated with 1 mmol 2-Methoxy-4-(piperidin-1-ylmethyl)phenyl dimethylcarbamate assessed as AChE-mediated compound formation after 24 hrs by HPLC-MS method; format: ADME; conditions: tissue homogenate
[9] = Metal chelating activity assessed as inhibition of copper-mediated Amyloid beta (1 to 40) aggregation at 50 uM after 48 hrs by transmission electron microscopy; format: physicochemical

Amyloid-beta precursor protein (Homo sapiens), sequence (P05067 whole entry): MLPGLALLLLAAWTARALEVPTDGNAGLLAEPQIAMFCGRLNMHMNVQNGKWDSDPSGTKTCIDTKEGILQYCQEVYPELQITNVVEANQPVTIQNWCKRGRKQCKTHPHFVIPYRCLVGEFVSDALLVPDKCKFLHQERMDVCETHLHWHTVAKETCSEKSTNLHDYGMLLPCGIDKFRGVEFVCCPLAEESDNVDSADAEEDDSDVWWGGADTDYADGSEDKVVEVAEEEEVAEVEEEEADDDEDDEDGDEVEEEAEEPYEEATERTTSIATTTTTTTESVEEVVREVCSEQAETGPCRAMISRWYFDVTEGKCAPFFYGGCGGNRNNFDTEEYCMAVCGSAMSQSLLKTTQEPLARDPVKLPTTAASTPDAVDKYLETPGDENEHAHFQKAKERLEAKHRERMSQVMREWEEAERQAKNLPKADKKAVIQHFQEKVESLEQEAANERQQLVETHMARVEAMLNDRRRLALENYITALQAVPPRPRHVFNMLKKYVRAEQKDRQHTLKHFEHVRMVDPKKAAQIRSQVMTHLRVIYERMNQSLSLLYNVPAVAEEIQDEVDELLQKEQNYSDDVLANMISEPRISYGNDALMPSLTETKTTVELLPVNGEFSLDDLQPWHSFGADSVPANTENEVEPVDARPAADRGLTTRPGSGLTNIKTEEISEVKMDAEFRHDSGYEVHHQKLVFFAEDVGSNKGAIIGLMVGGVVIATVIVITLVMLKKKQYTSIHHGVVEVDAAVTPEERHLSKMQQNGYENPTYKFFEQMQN
Butyrylcholinesterase, sequence (Q9JKC1 whole entry): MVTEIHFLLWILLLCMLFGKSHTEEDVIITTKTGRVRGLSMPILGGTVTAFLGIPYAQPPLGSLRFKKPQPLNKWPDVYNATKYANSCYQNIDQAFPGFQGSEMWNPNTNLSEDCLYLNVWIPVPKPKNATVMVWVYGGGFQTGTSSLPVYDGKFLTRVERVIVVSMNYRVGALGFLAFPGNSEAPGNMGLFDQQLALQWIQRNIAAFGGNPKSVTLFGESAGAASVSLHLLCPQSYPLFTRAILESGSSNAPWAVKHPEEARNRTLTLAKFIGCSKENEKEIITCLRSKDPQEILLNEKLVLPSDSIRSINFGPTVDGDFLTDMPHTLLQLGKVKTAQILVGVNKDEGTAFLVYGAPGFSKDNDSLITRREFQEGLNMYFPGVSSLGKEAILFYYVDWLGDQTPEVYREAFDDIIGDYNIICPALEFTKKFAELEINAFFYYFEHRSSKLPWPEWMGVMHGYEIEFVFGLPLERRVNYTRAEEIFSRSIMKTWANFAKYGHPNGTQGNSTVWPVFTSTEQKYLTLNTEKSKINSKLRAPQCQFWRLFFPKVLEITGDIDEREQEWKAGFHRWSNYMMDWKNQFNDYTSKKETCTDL
Butyrylcholinesterase (Rattus norvegicus), sequence (Q9JKC1 as listed by the source): as the sequence (Q9JKC1 whole entry) above

Structure (SMILES) | IC50 [1] [nM] | IC50 [2] [nM] | further results
COc1cc(C(C)N2CCCC2)ccc1OC(=O)N(C)C (stereo not given) | 18 | 190 | 
COc1ccc(CN2CCCC2)cc1OC(=O)N(C)C | 29 | 2870 | 
CCN(CC)C(C)c1ccc(OC(=O)N(C)C)c(OC)c1 (stereo not given) | 63 | 240 | 
CCN(CC)Cc1ccc(OC)c(OC(=O)N(C)C)c1 | 79 | 1480 | 
COc1cc(CN2CCCCC2)ccc1OC(=O)N(C)C | 24 | 97 | inhibition [3]: Active; Retention_time [4]: 6.84 min; Drug metabolism [5]: metabolite_detected
COc1cc(CN2CCCC2)ccc1OC(=O)N(C)C | 12 | 130 | 
CCN(CC)Cc1ccc(OC(=O)N(C)C)c(OC)c1 | 35 | 110 | 
COc1cc(C(C)N2CCOCC2)ccc1OC(=O)N(C)C (stereo not given) | 310 | 4980 | 
COc1ccc(C(C)N2CCCC2)cc1OC(=O)N(C)C (stereo not given) | 82 | 1920 | 
COc1ccc(CN2CCOCC2)cc1OC(=O)N(C)C | 120 | 20800 | 
COc1cc(CN2CCOCC2)ccc1OC(=O)N(C)C | 430 | 1710 | 
COc1cc(/C=C/C(=O)CC(=O)/C=C/c2ccc(O)c(OC)c2)ccc1O |  |  | inhibition [3]: Active
COc1cccc(CN2CCCCC2)c1OC(=O)N(C)C | 3130 | 22700 | 
COc1ccc(C(C)N2CCOCC2)cc1OC(=O)N(C)C (stereo not given) | 270 | 23300 | 
COc1ccc(C(C)N2CCCCC2)cc1OC(=O)N(C)C (stereo not given) | 34 | 1420 | 
COc1cc(C(C)N2CCCCC2)ccc1OC(=O)N(C)C (stereo not given) | 8 | 110 | inhibition [3]: Active; Ratio IC50 [6]: 40
CCN(CC)C(C)c1ccc(OC)c(OC(=O)N(C)C)c1 (stereo not given) | 130 | 2770 | 
COc1cc(CN2CCCCC2)ccc1O |  |  | IC50 [7]: 2910 nM; inhibition (INH) [7]: Dose-dependent effect; Drug metabolism [8]: metabolite_detected; Retention_time [4]: 5.5 min; inhibition (INH) [9]: Active
COc1ccc(CN2CCCCC2)cc1OC(=O)N(C)C | 10 | 660 | inhibition [3]: Active; Ratio IC50 [6]: 40
CCN(C)C(=O)Oc1cccc([C@H](C)N(C)C)c1 |  |  | inhibition [3]: inactive
COc1ccc2[nH]cc(CCNC(C)=O)c2c1 [MELATONIN] |  |  | IC50 [7]: 1920 nM; inhibition (INH) [7]: Dose-dependent effect
